{
  "source": "paper PMC11999280",
  "about": "“Design and screening of novel endosomal escape compounds that enhance functional delivery of oligonucleotides in vitro” (Molecular Therapy. Nucleic Acids, 2025)",
  "type_in_all_cases": "cell-based",
  "key": {"[1]": {"test_system": "mCherry-GAL9 expressing 16HBE cells", "experiment": "GAL9 recruitment assay, 16HBE", "conditions": "calculated mean from >3 independent exp.", "experimental": "(§1) Experiments assessing GAL9 localization as an indicator for endosomal remodeling were performed as previously described[15] using 8× stablemCherry-GAL9 expressing cell lines, SHSY5Y, U2OS, 16HBE, NCI-H358, HuH7, HepG2, HEK293, and HeLa. For mCherry-GAL9 recruitment, 3,000 or 6,500 cells/well (depending upon cell line) were seeded into 384-well CellCarrier Ultra plates 24 h prior to treatment (PerkinElmer, catalog no. 6007558). An Echo 655T acoustic dispenser (Labcyte) was used for EEE dose-response preparation by transferring to the cell plate. At assay endpoints, cells were PBS washed, 4% paraformaldehyde fixed at room temperature […] (VWR, catalog no. 9713.1000), and nuclei stained with PBS +1 μg/mL Hoechst 33342 (Thermo Fisher Scientific, catalog no. H21492).\n(§2) Imaging was performed using a spinning-disk confocal microscope (Yokogawa: CV8000) with a ×20w objective (numerical aperture 1.0). Cells and mCherry-GAL9 structure identification and quantification were done using Columbus image-analysis software (PerkinElmer version 2.9.0). Data processing was done using Spotfire (Tibco version 11.4) and Prism (GraphPad version 9.1.0). Image panels were assembled using the FigureJ plugin for FIJI.[43] All mCherry-GAL9 experiments were performed three times (N = 3) with duplicated wells per treatment (n = 2)."}, "[2]": {"test_system": "mCherry-GAL9 expressing HEK293 cells", "experiment": "GAL9 recruitment assay, HEK293", "conditions": "calculated mean from >3 independent exp.", "experimental": "as §1, §2"}, "[3]": {"test_system": "mCherry-GAL9 expressing HeLa cells", "experiment": "GAL9 recruitment assay, HeLa", "conditions": "calculated mean from >3 independent exp.", "experimental": "as §1, §2"}, "[4]": {"test_system": "mCherry-GAL9 expressing HepG2 cells", "experiment": "GAL9 recruitment assay, HepG2", "conditions": "calculated mean from >3 independent exp.", "experimental": "as §1, §2"}, "[5]": {"test_system": "mCherry-GAL9 expressing HuH7 cells", "experiment": "GAL9 recruitment assay, HuH7", "conditions": "calculated mean from >3 independent exp.", "experimental": "as §1, §2"}, "[6]": {"test_system": "mCherry-GAL9 expressing NCI-H358 cells", "experiment": "GAL9 recruitment assay, NCI-H358", "conditions": "calculated mean from >3 independent exp.", "experimental": "as §1, §2"}, "[7]": {"test_system": "mCherry-GAL9 expressing SHSY5Y cells", "experiment": "GAL9 recruitment assay, SHSY5Y", "conditions": "calculated mean from >3 independent exp.", "experimental": "as §1, §2"}, "[8]": {"test_system": "mCherry-GAL9 expressing U2OS cells", "experiment": "GAL9 recruitment assay, U2OS", "conditions": "calculated mean from >3 independent exp.", "experimental": "as §1, §2"}, "[9]": {"test_system": "HeLa_Luc705 cells (pLuc/705 splice-switching reporter)", "experiment": "Functional 705-SSO delivery, luciferase splice-switching assay", "conditions": "HeLa-Luc705 + 2 µM SSO; EEE 2.5 - 3 µM; mean from >3 independent experiments", "source_text": "Therefore, next, we functionally screened the SSO delivery in the HeLa_Luc705 reporter cell line. HeLa_Luc705 carries a pLuc/705 splice-switching reporter luciferase gene interrupted by a mutated β-globin intron, which creates a preferentially used cryptic 5′ splice site leading to aberrant splicing. Functional SSO delivery masks the cryptic site, redirecting the splicing machinery to the right splicing site, allowing the measurement of luciferase expression (Figure S1).[25]^,[26]^,[27]^,[28] We used SSO transfection with LF2000 as transfection control and the previously published endosomal escape enhancer CMP05 (here, EEE2) as positive control.[15]\nFor the assessment of functional SSO therapeutics, a HeLa_Luc705 cell line was grown in DMEM media supplemented with 10% fetal bovine serum (FBS). For most treatments, 10,000 cells/well were seeded in a 96-well plate, 24 h pre-incubated with 1- to 2-μM oligonucleotide, and then treated at the described EEE concentration. At 24 h post-treatment, cells were PBS rinsed and collected for further analysis (treatments and incubation times changed accordingly to the experiment design). Luciferase readout was performed as previously described,[15] using a GloMax 96-well plate microplate luminometer (Promega) immediately after adding 30 μL auto-injected luciferin substrate (Promega Firefly Luciferase Assay System; Thermo Scientific, catalog no. 16174) in a white-walled 96-well plate containing 30 μL 0.1% Triton X-100 (Sigma-Aldrich) cell lysed. Photon exposure time and delay were set to 10 and 2 s after injection. LF2000 was used as the transfection reagent control (Thermo Scientific, catalog no. 11668019). For EEE experiments using 1 or 2 μM SSOs, the control was prepared using lipofection with 100–200 nM SSO; this is to avoid complex induced cell toxicity.\n705-SSO was purchased from and synthesized by Integrated DNA Technologies. The 705-SSO sequence was previously published, containing 2′-O-methylated bases and only phosphorothioate-saturated backbone linkages were included.[15] The 705-SSO was high-performance liquid chromatography purified, shipped, and stored in IDTE buffer (10 mM Tris, 0.1 mM EDTA)."}},
  "data": [
    {"smiles": "COc1nn(C2CCN(C(C)C)CC2)cc1Nc1ncc(F)c(-n2ccc3c(C#N)cccc32)n1", "note": "[EEE9]", "values": [
      {"measurement": "Gal9 response compared to reference", "setting": "[1]; EEE 0.31 µM", "result": 0.010},
      {"measurement": "Gal9 response compared to reference", "setting": "[1]; EEE 0.62 µM", "result": 0.013},
      {"measurement": "Gal9 response compared to reference", "setting": "[1]; EEE 1.25 µM", "result": 0.042},
      {"measurement": "Gal9 response compared to reference", "setting": "[1]; EEE 2.5 µM", "result": 0.209},
      {"measurement": "Gal9 response compared to reference", "setting": "[1]; EEE 5 µM", "result": 0.533},
      {"measurement": "Gal9 response compared to reference", "setting": "[1]; EEE 10 µM", "result": 0.691},
      {"measurement": "Gal9 response compared to reference", "setting": "[2]; EEE 0.31 µM", "result": 0.028},
      {"measurement": "Gal9 response compared to reference", "setting": "[2]; EEE 0.62 µM", "result": 0.032},
      {"measurement": "Gal9 response compared to reference", "setting": "[2]; EEE 1.25 µM", "result": 0.071},
      {"measurement": "Gal9 response compared to reference", "setting": "[2]; EEE 2.5 µM", "result": 0.396},
      {"measurement": "Gal9 response compared to reference", "setting": "[2]; EEE 5 µM", "result": 0.712},
      {"measurement": "Gal9 response compared to reference", "setting": "[2]; EEE 10 µM", "result": 0.639},
      {"measurement": "Gal9 response compared to reference", "setting": "[3]; EEE 0.31 µM", "result": 0.005},
      {"measurement": "Gal9 response compared to reference", "setting": "[3]; EEE 0.62 µM", "result": 0.005},
      {"measurement": "Gal9 response compared to reference", "setting": "[3]; EEE 1.25 µM", "result": 0.007},
      {"measurement": "Gal9 response compared to reference", "setting": "[3]; EEE 2.5 µM", "result": 0.110},
      {"measurement": "Gal9 response compared to reference", "setting": "[3]; EEE 5 µM", "result": 0.393},
      {"measurement": "Gal9 response compared to reference", "setting": "[3]; EEE 10 µM", "result": 0.495},
      {"measurement": "Gal9 response compared to reference", "setting": "[4]; EEE 0.31 µM", "result": 0.009},
      {"measurement": "Gal9 response compared to reference", "setting": "[4]; EEE 0.62 µM", "result": 0.009},
      {"measurement": "Gal9 response compared to reference", "setting": "[4]; EEE 1.25 µM", "result": 0.007},
      {"measurement": "Gal9 response compared to reference", "setting": "[4]; EEE 2.5 µM", "result": 0.011},
      {"measurement": "Gal9 response compared to reference", "setting": "[4]; EEE 5 µM", "result": 0.060},
      {"measurement": "Gal9 response compared to reference", "setting": "[4]; EEE 10 µM", "result": 0.564},
      {"measurement": "Gal9 response compared to reference", "setting": "[5]; EEE 0.31 µM", "result": 0.012},
      {"measurement": "Gal9 response compared to reference", "setting": "[5]; EEE 0.62 µM", "result": 0.009},
      {"measurement": "Gal9 response compared to reference", "setting": "[5]; EEE 1.25 µM", "result": 0.019},
      {"measurement": "Gal9 response compared to reference", "setting": "[5]; EEE 2.5 µM", "result": 0.083},
      {"measurement": "Gal9 response compared to reference", "setting": "[5]; EEE 5 µM", "result": 0.220},
      {"measurement": "Gal9 response compared to reference", "setting": "[5]; EEE 10 µM", "result": 0.366},
      {"measurement": "Gal9 response compared to reference", "setting": "[6]; EEE 0.31 µM", "result": 0.018},
      {"measurement": "Gal9 response compared to reference", "setting": "[6]; EEE 0.62 µM", "result": 0.020},
      {"measurement": "Gal9 response compared to reference", "setting": "[6]; EEE 1.25 µM", "result": 0.031},
      {"measurement": "Gal9 response compared to reference", "setting": "[6]; EEE 2.5 µM", "result": 0.212},
      {"measurement": "Gal9 response compared to reference", "setting": "[6]; EEE 5 µM", "result": 0.569},
      {"measurement": "Gal9 response compared to reference", "setting": "[6]; EEE 10 µM", "result": 0.627},
      {"measurement": "Gal9 response compared to reference", "setting": "[7]; EEE 0.31 µM", "result": 0.013},
      {"measurement": "Gal9 response compared to reference", "setting": "[7]; EEE 0.62 µM", "result": 0.016},
      {"measurement": "Gal9 response compared to reference", "setting": "[7]; EEE 1.25 µM", "result": 0.117},
      {"measurement": "Gal9 response compared to reference", "setting": "[7]; EEE 2.5 µM", "result": 0.756},
      {"measurement": "Gal9 response compared to reference", "setting": "[7]; EEE 5 µM", "result": 0.780},
      {"measurement": "Gal9 response compared to reference", "setting": "[7]; EEE 10 µM", "result": 0.696},
      {"measurement": "Gal9 response compared to reference", "setting": "[8]; EEE 0.31 µM", "result": 0.012},
      {"measurement": "Gal9 response compared to reference", "setting": "[8]; EEE 0.62 µM", "result": 0.013},
      {"measurement": "Gal9 response compared to reference", "setting": "[8]; EEE 1.25 µM", "result": 0.018},
      {"measurement": "Gal9 response compared to reference", "setting": "[8]; EEE 2.5 µM", "result": 0.055},
      {"measurement": "Gal9 response compared to reference", "setting": "[8]; EEE 5 µM", "result": 0.254},
      {"measurement": "Gal9 response compared to reference", "setting": "[8]; EEE 10 µM", "result": 0.502},
      {"measurement": "Luciferase expression compared to reference", "setting": "[9]", "result": 0.692}
    ]}
  ]
}
